One data set deals with pAKT in BT-474 cells. Nature of the data set: pAKT status DM50, BT-474. The format is cell-based. Conditions: Homo sapiens; BT-474, breast cancer. How it is done: (§1) PC3 cells were obtained from the American Type Culture Collection (ATCC, Manassas, Va., Cat.# CRL-1435). Two million cells from the prostate cancer line PC3 were placed into 6 cm culture dishes and allowed to grow in complete RPMI 1640 media (Invitrogen, Carlsbad, Calif., Cat.#22400-105) with 10% fetal bovine serum (Invitrogen, Carlsbad, Calif., Cat.#10438-026). After this time period the cells were serum starved for 5 hours followed by application of the test compound. Test compound was added as a DMSO (dimethyl sulfoxide) solution such that the final DMSO concentration in the cell media was less than or equal to 0.2% by volume After 30 minutes of exposure the growth factor stimulant, human IGF-1 (PeproTech, Inc., Rocky Hill, N.J., Cat.#100-11), was added to a final concentration of 0.1 μg/ml in each well. After 30 minutes of IGF-1 exposure, cells were removed from the media and cell lysates were prepared using RIPA Lysis buffer (Upstate, Lake Placid, N.Y., Cat.#20-188), keeping on ice. The pAKT serine 473 level was measured in duplicate samples of the cell lysates using commercially available assays such as the Pathscan® Sandwich ELISA kit for Ser473 pAKT (Cell Signaling, Danvers, Mass., Cat.#7160). A SpectraMax Plus spectrophotometric plate reader (Molecular Devices, Sunnydale, Calif.) was used to measure the optical density signal for pAKT at 450 nm (OD450 nm). The pAKT OD450 nm readings were normalized by total protein amount in the cell lysates determined by standard methods.
(§2) Concentrations of test compounds required to inhibit IGF stimulated pAKT levels to 50% of maximum levels in PC3 cells (termed DM50 for decreased maximum 50%) were calculated by inputting the dose responses in the software package GraphPad Prism4 (GraphPad Software, Inc., San Diego, Calif.).
(§3) Several other cancer cell lines were obtained from ATCC and grown according to the supplier's recommendations and treated with test compounds. DM50 values listed in Table 6 below were obtained by the methods described in Example A: […]

The next data set deals with pAKT in 786-O cells. Nature of the data set: pAKT status DM50, 786-O. The format is cell-based. To be noted: Homo sapiens, 786-0, renal cell carcinoma. How it is done: as §1, §2, §3
For data set [1], the system named is pAKT serine 473 level in PC3 cells. Nature of the data set: pAKT status in IGF-1 stimulated PC3 cells (Ser473 pAKT ELISA). The format is cell-based. To be noted: Homo sapiens, PC-3. On the procedure: as §1, §2
By these methods a number of compounds of the invention were evaluated and the concentration needed to reduce the detectable pAKT to 50% of the maximal uninhibited signal was calculated. These values (in μMolar units) are listed in Table 8 under the column heading PC3 pAKT IC50 (μMolar).
On the technique in general: In an ELISA, binding on a coated surface is turned into a signal by an enzyme label.

The test system of the next data set is BT-474 cells. Nature of the data set: Cellular proliferation (Example B method), BT-474. The format is cell-based. To be noted: Homo sapiens; BT-474, breast cancer. How it is done:
(§4) PC3 cells were obtained from the American Type Culture Collection (ATCC, Manassas, Va., Cat.# CRL-1435) Two thousand cells from the prostate cancer line PC3 were placed in 50 μL of complete RPMI 1640 media (Invitrogen, Carlsbad, Calif., Cat.#22400-105) with 10% fetal bovine serum (Invitrogen, Carlsbad, Calif., Cat.#10438-026) into each well of 96 well cell culture plates in a hexaplicate sampling pattern. A 50 μL aliquot of test compound (prepared from stock test compounds in DMSO diluted into media) was added to the appropriate well such that the final concentrations of test compound were 200, 40, 8, 1.6, 0.32, 0.064, 0.0128, 0.00256, and 0 μM and the final DMSO concentration was less than or equal to 0.2%.
(§5) The plates were incubated for 72 hours 37° C. in an atmosphere of 5% CO2. At the end of this time a 10 μL aliquot of WST solution (Roche Applied Science, Mannheim, Germany) was added into each of the wells. Cells were exposed to the WST solution for 4 hours. A SpectraMax Plus spectrophotometric plate reader (Molecular Devices, Sunnydale, Calif.) was then used to measure the optical density at 450 nm (OD450 nm). Sigmoidal curves were drawn for the dose responses and IC50 values were calculated using the software package GraphPad Prism4 (GraphPad Software, Inc., San Diego, Calif.).
(§6) Several other cancer cell lines were obtained from ATCC and grown according to their recommendations and treated with test compounds to obtain the concentration of test compound that inhibited the cellular proliferation by 50% of no-treatment controls. These IC50 values (μM) are listed in Table 7 below obtained by the methods described in Example B: […]

In another data set the test system is 786-O cells. Nature of the data set: Cellular proliferation (Example B method), 786-O. The format is cell-based. To be noted: Homo sapiens, 786-0, renal cell carcinoma. How it is done:
as §4, §5, §6

For the next data set, the target named is mTOR (Homo sapiens, UniProt P42345). Nature of the data set: mTOR inhibition. It counts as biochemical.
A further data set concerns H1299 cells. Nature of the data set: Cellular proliferation (Example B method), H1299. It counts as cell-based. Conditions: Homo sapiens, NCI-H1299; H1299, non-small cell lung cancer. How it is done:
as §4, §5, §6

In the next data set the test system is pAKT in H1299 cells. Nature of the data set: pAKT status DM50, H1299. To be noted: Homo sapiens, NCI-H1299; H1299, non-small cell lung cancer. It counts as cell-based. On the procedure:
as §1, §2, §3

The test system of a further data set is breast cancer stem cells. To be noted: women with breast tumors with high HER2; decreased from 11%; cited from earlier work.
The next data set has as its system MCF7 breast cancer cells. Nature of the data set: Mammosphere cancer stem cell inhibition assay. It counts as cell-based. To be noted: 1 μM. How it is done: A mammosphere cancer stem cell inhibition assay was set up using literature methods (T. M. Phillips et al. J. Natl. Cancer I. 2006, 98, 1777-1785, “Mammalian target of rapamycin contributes to the acquired apoptotic resistance of human mesothelioma multicellular spheroids”) using a subset of MCF7 breast cancer cells that posses the ability to evade anchorage independent apoptosis. Commercially available MCF7 breast cancer cells were cultured in MEM supplemented with 0.01 mg/mL of bovine insulin and 10% FBS at 37° C. in humidified atmosphere (5% CO2). Floating cells in the 2-day cultures were collected, washed, and resuspended in DMEM-F12 (50:50) supplemented with 0.4% BSA, 5 μg/mL bovine insulin, 20 ng/mL bFGF, and 10 ng/mL EGF. Cells were then passed through a […] sieve to remove any cell clusters and adjusted to a density of 10,000 cells/mL. Approximately 500 cells were plated in quadruplicate in a sterile poly-HEMA-treated 96-well plate. Cells were then treated with either control or test solutions consisting of the kinase inhibitor Lapatinib (1 μM), Cpd 28 (1 or 10 μM), Cpd 55 (1 or 10 μM), The numbers of mammospheres (clusters of cells numbering more than 4 or 5 per cluster) were then counted after 5-7 days.

For data set [2], the system named is 786-0 renal cell carcinoma xenograft. Nature of the data set: 786-0 renal cell carcinoma xenograft mouse model. Conditions: 25 mg/kg, ip. The format is in vivo, nude mice. How it is done: To determine if Cpd 9 has anti-tumor effects, an in vivo study was conducted in a 786-0 renal cell carcinoma xenograft model, 786-0 cells (2×10^6) were inoculated subcutaneously into nude mice in the flank area and tumor growth was monitored with calipers via external measurements. Tumor volume was calculated using the formula volume=(length×width^2)/2. When the average tumor volume reached 400 mm^3, mice were randomly divided into 2 groups and treated with either DMSO (control) or Cpd 9 (25 mg/kg, ip) three times weekly (M, W, F) for two weeks.
To determine if Cpd 28 has anti-tumor effects, an in vivo study was conducted in a 786-0 renal cell carcinoma xenograft model, 786-0 cells (2×10^6) were inoculated subcutaneously into nude mice in the flank area and tumor growth was monitored with calipers via external measurements. Tumor volume was calculated using the formula volume=(length×width^2)/2. Treatment was started when tumors reached an average volume of 300 mm^3. […] DMSO was used as control since this was the vehicle the compounds were dissolved in. Tumor size was monitored twice weekly and body weight was monitored once weekly. Means and standard deviations were calculated and the Student t test method was used for statistical comparisons.

Another data set relates to PC3 cells. Nature of the data set: PC3 prostate cancer cell proliferation (WST). To be noted: Homo sapiens, PC-3. It counts as cell-based. How it is done: as §4, §5
The next data set deals with PI-3 kinases. To be noted: Vlahos et al. J. Biol. Chem. 1994; cited from earlier work.
The next data set relates to 786-0 cells. Nature of the data set: Apoptosis in 786-0 cells (Annexin V / PI flow cytometry). On the set-up: unit not given here. The format is cell-based. To be noted: overnight. On the procedure: In order to evaluate the mechanism of action of these compounds, 786-0 cell cultures were treated with Cpd 9 or Cpd 28 at different concentrations overnight and then analyzed for apoptotic induction. The cells were stained using standard methods with Annexin V and/or Propedium iodine (PI) at room temperature for 15 minutes. Apoptotic cells at early (Annexin V positive) or late stage (both Annexin V and PI positive) were detected by Flow Cytometry.
(A flow cytometer gives signals particle by particle.)

[3] abbreviates: PC3 cells, read-out: IC50 pAKT (Pathway Inhibition).

SMILES strings stand for the structures. Like-named read-outs stand apart in the source and are kept apart here.

Regarding `O=c1cc(N2CCOCC2)oc2c(-c3ccccc3)csc12` [Compound 6, 5-morpholino-3-phenyl-7H-thieno[3,2-b]pyran-7-one], the IC50 in the data set on pAKT in BT-474 cells stood at 1240 nM; in the data set with pAKT in 786-O cells, 4.17 µM; in data set [1] (IGF-1 stimulated PC3 cells, read-out: PC3 pAKT IC50), 550 nM; in data set [1] (setting [3]) it was 550 nM; with BT-474 cells it was 11.6 µM; with 786-O cells, 9.53 µM. In addition, the IC50 against mTOR was determined as 610 nM; with H1299 cells, 5.02 µM; in the data set on pAKT in H1299 cells it was 3.19 µM.
Consider `CS(=O)(=O)CCNCc1ccc(-c2ccc3ncnc(Nc4ccc(OCc5cccc(F)c5)c(Cl)c4)c3c2)o1` [Lapatinib, reference compound], for which the “breast cancer stem cells in biopsies” value in the data set on breast cancer stem cells is 5 % of cells. In addition, the entries for the “inhibition of mammosphere production versus control” value with MCF7 breast cancer cells (first experiment) and with MCF7 breast cancer cells (separate experiment) were 33% and 55%, respectively. Besides, the number of mammospheres in the data set on MCF7 breast cancer cells (first experiment, control 38±4) came to 26±2 mammospheres; in the data set with MCF7 breast cancer cells (separate experiment, control 32±6), 17±4 mammospheres.
As for `O=c1cc(N2CCOCC2)oc2c(-c3ccccc3)cccc12` [LY294002, 2-morpholino-8-phenyl-4H-chromen-4-one, reference compound], the “tumor growth inhibition compared to control” value in data set [2] (3×/wk for 4 weeks) was determined as 54%. Moreover, the IC50 was 1300 nM in data set [1] (setting [3]); 7.5 to 12.1 µM in the data set with PC3 cells (PC3 cells, read-out: PC3 IC50 Proliferation); 1060 nM on mTOR; 1400 nM in the data set on PI-3 kinases.
Consider `CN(C)c1ccc(-c2csc3c(=O)cc(N4CCOCC4)oc23)cc1` [Compound 9], for which the IC50 in the data set with pAKT in BT-474 cells was 906 nM; in the data set with pAKT in 786-O cells, 2.66 µM; in the data set on BT-474 cells, 5.91 µM; in the data set on 786-O cells, 6.24 µM; in the data set on PC3 cells (72 hours, read-out: IC50 PC3 Proliferation) it was 2.01 µM; in the data set on H1299 cells it was 3.04 µM. The compound also registered an IC50 with pAKT in H1299 cells of 3.07 µM. Besides, in data set [2] (3×/wk, about two weeks, p<0.05), the “tumor growth reduction compared to control” value came out at 93%. The “body weight change or other abnormalities” value in data set [2] (3×/wk, two weeks) is “No significant body weight change or other abnormalities were observed”. The “Early stage apoptotic cells” value stood at 7.76 with 786-0 cells (5 μM) and 8.31 in the data set with 786-0 cells (10 μM). The “Late stage apoptotic cells” value in the data set on 786-0 cells (5 μM) is recorded as 10.5; in the data set on 786-0 cells (10 μM) it was 11.62. Moreover, the “Total Apoptotic Cells” value was determined as 18.26 in the data set with 786-0 cells (5 μM) and 19.93 in the data set with 786-0 cells (10 μM).

Source of the values: patent US9981983B2, “Thienopyranones as kinase inhibitors” (SignalRx Pharmaceuticals, Inc., priority 2008, dated 2018).
